Test system: rat liver proteome
Assay: Liver label-free quantitative proteomics
Type: in vivo
Settings: liver protein
Protocol: Liver tissue were homogenized in PreOmics iST buffer (PreOmics) using a bead ruptor. […] Peptides were purified using PreOmics iST cartridges and vacuum-centrifuged to dryness. Peptides were subsequently reconstituted in 2 vol% ACN and 0.1 vol% formic acid for single-run LC–MS analysis. Peptides were analyzed using a Thermo EASY-nLC1200 coupled online to an Exploris 480 Mass Spectrometer equipped with a Nanospray Flex Ion Source integrated with a column oven (PRSO-V1, Sonation) and a FAIMS unit. Peptides were separated using a nonlinear gradient and analyzed by acquiring spectra through Data Independent Acquisition (DIA). Data was analyzed using Spectronaut V15.7.2 (Biognosys AG) direct DIA analysis using an isoform Rat database (UniProt downloaded 22.02.2021) consisting of 9,746 protein entries utilizing the Pulsar search engine. Analysis settings were maintained to factory settings and identification was set to 1% false discovery rate (FDR) for precursor and protein level. Additional information is provided in Supplementary M&M.
Data analysis was performed using R Statistical Software (version 4.3.0). Proteomics, transcriptomics and metabolomics expression changes were visualised using heatmaps showing log2 fold change relative to control. In the heatmaps missing values were highlighted in grey.
Proteomics Analysis. Liver tissue was placed in vials containing 1.4 mm zirconia beads and taken up in 500 µL of PreOmics iST buffer (PreOmics). In a cold room set to 4 °C, tissues were homogenized utilizing a bead Ruptor 12 by shaking for 30 seconds for a total of 5 times using ‘high’ setting. Lysate was normalized using BCA assay (Thermo Fisher Scientific), and subsequently incubated at 95 °C for 10 min for reduction, and alkylation of proteins. A total of 50 μg from each sample was subjected to enzymatic cleavage for 3 h by adding equal amounts of endoproteinase Lys-C and trypsin (ThermoFisher Scientific, # A40009) in a 1:50 (wt/wt) enzyme:protein ratio. De-salting and purification were performed according to the PreOmics iST protocol on a styrene divinylbenzene reversed-phase sulfonate sorbent. Purified peptides were vacuum-centrifuged to dryness and reconstituted in double-distilled water with 2 vol% ACN and 0.1 vol% formic acid (FA) for single-run LC-MS analysis.
Peptides were loaded onto a ReproSil-Pur 120 C18AQ 1.9 µm in-house packed to a 5 µm tip 75u ID × 360u × 50 cm column using Thermo EASY-nLC 1200 coupled online to an Exploris 480 Mass Spectrometer equipped with a Nanospray Flex Ion Source integrated with a column oven (PRSO-V1, Sonation) maintained at 50 °C. Peptides were separated using a nonlinear gradient: Mobile phase A was 0.1 vol% FA and 3 vol% acetonitrile (ACN) in water, Mobile phase B was 90 vol% ACN and 0.1 vol % FA. The gradient was operated at 250 nL/min flowing 3 vol% B for 3 min, 3 to 5 vol% B over 3 min, 5 to 17 vol % B over 120 min, 17 to 24 vol % B over 26 min, 24 to 30 vol% B over 14 min, 30 to 85 vol% B over 3 min.

SMILES: Cn1cc2cc(-c3cc4[nH]nc(C5CC5)c4n(-c4ccc(OC(F)F)cc4)c3=O)ccc2n1 [AZ’9567]
- Hexa Log2FC (10mg/kg): -0.7
- Hfe Log2FC (10mg/kg): 1.0
- Hmgcs1 Log2FC (10mg/kg): 1.1
- Hmgn2 Log2FC (10mg/kg): 1.0
- Hnrnpa1 Log2FC (10mg/kg): 1.1
- Hsd17b7 Log2FC (10mg/kg): 0.6
- Idi1 Log2FC (10mg/kg): 0.9
- Igf1 Log2FC (10mg/kg): -1.2
- Kalrn Log2FC (10mg/kg): 0.6
- Lipa Log2FC (10mg/kg): -0.8
- Lrrc8d Log2FC (10mg/kg): 1.0
- Lyrm2 Log2FC (10mg/kg): 0.9
- Mat2a Log2FC (10mg/kg): 0.7
- Mat2b Log2FC (10mg/kg): -2.4
- Me1 Log2FC (10mg/kg): -1.5
- Mettl7b Log2FC (10mg/kg): -0.8
- Mettl26 Log2FC (10mg/kg): -1.6
- Minpp1 Log2FC (10mg/kg): 1.1
- Mospd1 Log2FC (10mg/kg): -0.7
- Mt1 Log2FC (10mg/kg): 5.3
- Mtr Log2FC (10mg/kg): 1.1
- Mybbp1a Log2FC (10mg/kg): 1.1
- Ncl Log2FC (10mg/kg): 0.8
- Nob1 Log2FC (10mg/kg): 0.8
- Orm1 Log2FC (10mg/kg): 1.2
- Paics Log2FC (10mg/kg): 0.8
- Pcyt1a Log2FC (10mg/kg): 0.6
- Pklr.1 Log2FC (10mg/kg): -0.7
- Prmt1 Log2FC (10mg/kg): 0.9
- Pspc1 Log2FC (10mg/kg): 0.8
- Ptprs Log2FC (10mg/kg): -1.3
- Pum3 Log2FC (10mg/kg): 0.9
- Rbm3 Log2FC (10mg/kg): 1.0
- Rgn Log2FC (10mg/kg): -0.6
- Rmdn1 Log2FC (10mg/kg): 0.7
- S1pr1 Log2FC (10mg/kg): -0.6
- Scd1 Log2FC (10mg/kg): -1.8
- Sh3glb1 Log2FC (10mg/kg): 0.6
- Sirt2 Log2FC (10mg/kg): 0.9
- Slc6a13 Log2FC (10mg/kg): -1.3
- Slc39a4 Log2FC (10mg/kg): -2.2
- Sqle Log2FC (10mg/kg): 0.6
- Srebf1 Log2FC (10mg/kg): 1.2
- Sts Log2FC (10mg/kg): -0.7
- Tat Log2FC (10mg/kg): -1.7
- Tceanc2 Log2FC (10mg/kg): 1.4
- Thg1l Log2FC (10mg/kg): 1
- Tpmt Log2FC (10mg/kg): -1.2
- Tspo Log2FC (10mg/kg): 2
- Txnrd2 Log2FC (10mg/kg): -0.7
- Ube2f Log2FC (10mg/kg): 0.9
- Ugt2b1 Log2FC (10mg/kg): -1.6
- Wdr45 Log2FC (10mg/kg): -0.9
- Ythdc1 Log2FC (10mg/kg): 0.7
- A2m Log2FC (30mg/kg): 3.7
- Abcb1 Log2FC (30mg/kg): 2
- Abhd1 Log2FC (30mg/kg): -1.5
- Acaca Log2FC (30mg/kg): -1.2
- Acbd4 Log2FC (30mg/kg): -0.6
- Acly Log2FC (30mg/kg): -0.9
- Acsl1 Log2FC (30mg/kg): -0.8
- Acsl3 Log2FC (30mg/kg): -0.9
- Acsl5 Log2FC (30mg/kg): -0.6
- Acsm2 Log2FC (30mg/kg): 1.4
- Akap5 Log2FC (30mg/kg): -1.1
- Aldh1a1 Log2FC (30mg/kg): 2.0
- Aldh1a7 Log2FC (30mg/kg): 1.7
- Aldh16a1 Log2FC (30mg/kg): -0.5
- Alpl Log2FC (30mg/kg): 1.8
- Als2 Log2FC (30mg/kg): -1.1
- Anpep Log2FC (30mg/kg): 1.4
- Aox1 Log2FC (30mg/kg): -1.2
- Apeh Log2FC (30mg/kg): -0.7
- Apoc1 Log2FC (30mg/kg): -1.1
- Aqp8 Log2FC (30mg/kg): 1.0
- Asns Log2FC (30mg/kg): 1.0
- Baat Log2FC (30mg/kg): -0.9
- Banf1 Log2FC (30mg/kg): 0.9
- Bhmt2 Log2FC (30mg/kg): 1.1
- Bhmt Log2FC (30mg/kg): 1.8
- Brix1 Log2FC (30mg/kg): 0.9
- Ca5a Log2FC (30mg/kg): 0.9
- Carnmt1 Log2FC (30mg/kg): -1.3
- Cbs Log2FC (30mg/kg): -2.8
- Ccnd1 Log2FC (30mg/kg): 16.3
- Cdh1 Log2FC (30mg/kg): 0.8
- Cdo1 Log2FC (30mg/kg): -4.1
- Ces2c Log2FC (30mg/kg): 1.7

From paper PMC11272821, “Mechanistic safety assessment via multi-omic characterisation of systemic pathway perturbations following in vivo MAT2A inhibition” (Archives of Toxicology, 2024)
